Legend:
Assay in all cases: Post-emergence herbicidal action against harmful plants
Type in all cases: in vivo
Conditions in all cases: application rate 320 g/ha, rated visually after about 3 weeks vs untreated controls
Abutilon theophrasti = test system: Abutilon theophrasti
Procedure: (§1) 2. Post-Emergence Herbicidal Action Against Harmful Plants Seeds of monocotyledonous and dicotyledonous weed and crop plants are placed in sandy loam in wood-fiber pots, covered with soil and cultivated in a greenhouse under good growth conditions. 2 to 3 weeks after sowing, the test plants are treated at the one-leaf stage. The compounds according to the invention, formulated in the form of wettable powders (WP) or as emulsion concentrates (EC), are then sprayed as aqueous suspension or emulsion at a water application rate of 600 to 800 l/ha (converted) with the addition of 0.2% of wetting agent onto the green parts of the plants. After the test plants have been kept in the greenhouse under optimum growth conditions for about 3 weeks, the activity of the preparations is rated visually in comparison to untreated controls (herbicidal activity in percent (%): 100% activity=the plants have died, 0% activity=like control plants). Here, for example, the compounds Nos. I-1-c-2 and I-1-c-3 (Table 33 in each case) each show, at an application rate of 320 g/ha, an activity of at least 90% against Alopecurus myosuroides, Amaranthus retroflexus, Matricaria inodora, Pharbitis purpureum and Viola tricolor.

Fallopia convolvulus = test system: Fallopia convolvulus
Procedure: as §1

Lolium multiflorum = test system: Lolium multiflorum
Procedure: as §1

Veronica persica = test system: Veronica persica
Procedure: as §1

CCc1cc(Cl)cc(Br)c1-c1c(OC(=O)C(C)C)c(C)nn(C)c1=O [I-1-b-2]
100%: herbicidal activity in percent against Abutilon theophrasti (Abutilon theophrasti) | herbicidal activity in percent against Fallopia convolvulus (Fallopia convolvulus) | herbicidal activity in percent against Lolium multiflorum (Lolium multiflorum) | herbicidal activity in percent against Veronica persica (Veronica persica)

CCc1cc(Cl)cc(Br)c1-c1c(O)c(C)nn(C)c1=O [I-1-a-3]
100%: herbicidal activity in percent against Abutilon theophrasti (Abutilon theophrasti) | herbicidal activity in percent against Fallopia convolvulus (Fallopia convolvulus) | herbicidal activity in percent against Lolium multiflorum (Lolium multiflorum) | herbicidal activity in percent against Veronica persica (Veronica persica)

Source: patent publication US20110118118A1, “HERBICIDALLY ACTIVE PHENYL-SUBSTITUTED PYRIDAZINONES” (BAYER CROPSCIENCE AG, priority 2009, published 2011)
